Results published in article PMC11748363, “Antimicrobial and Antiproliferative Properties of 2‐Phenyl‐N‐(Pyridin‐2‐yl)acetamides” (Chemical Biology & Drug Design, 2025).
≈ marks a conversion by molar mass, not a printed value. Like-named read-outs stand apart in the source and are kept apart here.

Key:
[1] = system: Lichtheimia corymbifera CCM 8077; experiment: Antifungal microdilution broth MIC, LC
[2] = system: Candida tropicalis CCM 8264, ATCC 750; experiment: Antifungal microdilution broth MIC, CT
[3] = system: Mycolicibacterium aurum DSM 43999; experiment: Antimycobacterial microdilution broth MIC (resazurin), M. aurum; format: cell-based; settings: DSM43999, read-out: MIC M. aurum
[4] = system: Enterococcus faecalis CCM 4224, ATCC 29212; experiment: Antibacterial microdilution broth MIC, EF; format: cell-based
[5] = system: Candida krusei CCM 8271, ATCC 6258; experiment: Antifungal microdilution broth MIC, CK; settings: Pichia kudriavzevii
[6] = system: Escherichia coli CCM 3954, ATCC 25922; experiment: Antibacterial microdilution broth MIC, EC; format: cell-based
[7] = system: Candida albicans CCM 8320, ATCC 24433; experiment: Antifungal microdilution broth MIC, CA
[8] = system: Mycobacterium tuberculosis H37Ra; experiment: Antimycobacterial microdilution broth MIC (resazurin), Mtb H37Ra; format: cell-based; settings: for MIC: Mycobacterium tuberculosis, H37RA, read-out: MIC Mtb H37Ra
[9] = system: Acinetobacter baumannii DSM 30007, ATCC 19606; experiment: Antibacterial microdilution broth MIC, ACI; format: cell-based
[10] = system: Staphylococcus epidermidis CCM 4418, ATCC 12228; experiment: Antibacterial microdilution broth MIC, SE; format: cell-based
[11] = system: Staphylococcus aureus subsp. aureus CCM 4750, ATCC 43300 (MRSA); experiment: Antibacterial microdilution broth MIC, MRSA; format: cell-based; settings: Staphylococcus aureus
[12] = system: Pseudomonas aeruginosa CCM 3955, ATCC 27853; experiment: Antibacterial microdilution broth MIC, PA; format: cell-based
[13] = system: Aspergillus fumigatus ATCC 204305; experiment: Antifungal microdilution broth MIC, AF
[14] = system: Aspergillus flavus CCM 8363; experiment: Antifungal microdilution broth MIC, AFla
HepG2 cell line = experiment: Cytotoxicity CellTiter 96, HepG2; format: cell-based, human; settings: Homo sapiens, HepG2, 24 h, 24 h incubation; ^c compound precipitated in the testing medium; ^d over the limit of tested concentrations
[15] = system: Staphylococcus aureus CCM 4223, ATCC 29213; experiment: Antibacterial microdilution broth MIC, SA; format: cell-based; settings: Staphylococcus aureus
[16] = system: Trichophyton interdigitale CCM 8377, ATCC 9533; experiment: Antifungal microdilution broth MIC, TI; settings: Trichophyton interdigitale
[17] = system: Mycolicibacterium smegmatis DSM 43465; experiment: Antimycobacterial microdilution broth MIC (resazurin), M. smegmatis; format: cell-based; settings: DSM43465, read-out: MIC M. smegmatis
[18] = system: Klebsiella pneumoniae CCM 4415, ATCC 10031; experiment: Antibacterial microdilution broth MIC, KP
[19] = system: Candida parapsilosis CCM 8260, ATCC 22019; experiment: Antifungal microdilution broth MIC, CP; settings: Lodderomyces parapsilosis
[20] = CCM8077, 24 h, read-out: MIC LC 24h
[21] = CCM8077, 48 h, read-out: MIC LC 48h
[22] = ATCC204305, 24 h, read-out: MIC AF 24h
[23] = ATCC204305, 48 h, read-out: MIC AF 48h
[24] = CCM8363, 24 h, read-out: MIC AFla 24h
[25] = CCM8363, 48 h, read-out: MIC AFla 48h

Structure (SMILES)	MIC [1, 20] [µM]	MIC [1, 21] [µM]	MIC ([2]; 24 h, read-out: MIC CT 24h) [µM]	MIC ([2]; 48 h, read-out: MIC CT 48h) [µM]	MIC [3] [µg/mL]	MIC ([4]; 24 h, read-out: MIC EF 24h) [µM]	MIC ([4]; 48 h, read-out: MIC EF 48h) [µM]	MIC ([5]; 24 h, read-out: MIC CK 24h) [µM]	MIC ([5]; 48 h, read-out: MIC CK 48h) [µM]	MIC ([6]; 24 h, read-out: MIC EC 24h) [µM]	MIC ([6]; 48 h, read-out: MIC EC 48h) [µM]	MIC ([7]; 24 h, read-out: MIC CA 24h) [µM]	MIC ([7]; 48 h, read-out: MIC CA 48h) [µM]	MIC ([8]; Calculated from MIC (μg/mL)) [µM]	MIC [8] [µg/mL]	MIC ([9]; 24 h, read-out: MIC ACI 24h) [µM]	MIC ([9]; 48 h, read-out: MIC ACI 48h) [µM]	MIC ([10]; 24 h, read-out: MIC SE 24h) [µM]	MIC ([10]; 48 h, read-out: MIC SE 48h) [µM]	MIC ([11]; 24 h, read-out: MIC MRSA 24h) [µM]	also measured
COc1cccc(CC(=O)Nc2cccc(Cl)n2)c1 [Compound 9, 2-(3-methoxyphenyl)-N-(6-chloropyridin-2-yl)acetamide]	500 (≈ 138 µg/mL)	> 500	500 (≈ 138 µg/mL)	500 (≈ 138 µg/mL)	> 500	> 500	> 500	500 (≈ 138 µg/mL)	500 (≈ 138 µg/mL)	> 500	> 500	500 (≈ 138 µg/mL)	500 (≈ 138 µg/mL)	900	250	> 500	> 500	> 500	> 500	> 500	MIC ([11]; 48 h, read-out: MIC MRSA 48h): > 500 µM; MIC ([12]; 24 h, read-out: MIC PA 24h): > 500 µM; MIC ([12]; 48 h, read-out: MIC PA 48h): > 500 µM; MIC [13, 22]: 500 µM (≈ 138 µg/mL); MIC [13, 23]: > 500 µM; MIC [14, 24]: 500 µM (≈ 138 µg/mL); MIC [14, 25]: > 500 µM; IC50 (HepG2 cell line): 638 µM; MIC ([15]; 24 h, read-out: MIC SA 24h): > 500 µM; MIC ([15]; 48 h, read-out: MIC SA 48h): > 500 µM; MIC ([16]; 72 h, read-out: MIC TI 72h): 500 µM (≈ 138 µg/mL); MIC ([16]; 120 h, read-out: MIC TI 120h): > 500 µM; MIC [17]: 125 µg/mL (≈ 452 µM); MIC KP 24h [18]: > 500 µmol/L; MIC KP 48h [18]: > 500 µmol/L; MIC ([19]; 24 h, read-out: MIC CP 24h): 500 µM (≈ 138 µg/mL); MIC ([19]; 48 h, read-out: MIC CP 48h): 500 µM (≈ 138 µg/mL)
O=C(Cc1ccccc1)Nc1cccc(Cl)n1 [Compound 3]	> 500	> 500	> 500	> 500	62.5 (≈ 253 µM)	> 500	> 500	250 (≈ 61.7 µg/mL)	500 (≈ 123 µg/mL)	> 500	> 500	> 500	> 500	127	31.2	> 500	> 500	> 500	> 500	> 500	SI (selectivity index) ([8]; SI = HepG2 IC50 (μM)/MIC MtbH37Ra (μM), calculated for compounds with MIC ≤ 31.25 μg/mL): 3.42; MIC ([11]; 48 h, read-out: MIC MRSA 48h): > 500 µM; MIC ([12]; 24 h, read-out: MIC PA 24h): > 500 µM; MIC ([12]; 48 h, read-out: MIC PA 48h): > 500 µM; MIC [13, 22]: > 500 µM; MIC [13, 23]: > 500 µM; MIC [14, 24]: > 500 µM; MIC [14, 25]: > 500 µM; IC50 (HepG2 cell line): 433 µM; MIC ([15]; 24 h, read-out: MIC SA 24h): 500 µM (≈ 123 µg/mL); MIC ([15]; 48 h, read-out: MIC SA 48h): 500 µM (≈ 123 µg/mL); MIC ([16]; 72 h, read-out: MIC TI 72h): 125 µM (≈ 30.8 µg/mL); MIC ([16]; 120 h, read-out: MIC TI 120h): 250 µM (≈ 61.7 µg/mL); MIC [17]: 15.6 µg/mL (≈ 63.3 µM); MIC KP 24h [18]: > 500 µmol/L; MIC KP 48h [18]: > 500 µmol/L; MIC ([19]; 24 h, read-out: MIC CP 24h): 500 µM (≈ 123 µg/mL); MIC ([19]; 48 h, read-out: MIC CP 48h): > 500 µM
